The test system of the first assay is MCF7. The assay is described as follows: Cytotoxicity against human MCF7 cells at 5 uM by MTT assay. The assay is classed as functional.
Molecule `Cc1nc2nc(Sc3ccccc3)cnc2cc1NC(=O)CN(C)C` showed an Activity of less than 50%.

As to `Cc1nc2nccnc2cc1NC(=O)c1cccc(C(F)(F)F)c1`, the Activity is on record as less than 50%.

`Cc1nc2nccnc2cc1NC(=O)c1ccccc1`: the Activity is less than 50%.

Molecule `CSc1ccc(NC(=O)Nc2cc3ncc(Sc4ccccc4)nc3nc2C)cc1` gave an Activity of less than 50%.

With `Cc1nc2nc(Sc3ccccc3)cnc2cc1NC(=O)c1ccccc1C(F)(F)F`, the Activity is listed as less than 50%.

`Cc1nc2nc(Sc3ccccc3)cnc2cc1NC(=O)c1cccc(C(F)(F)F)c1` came in with an Activity of less than 50%.

Consider `Cc1nc2nccnc2cc1NC(=O)CN(C)C`, for which the Activity was less than 50%.

`Cc1nc2nccnc2cc1NC(=O)c1ccc([N+](=O)[O-])cc1` registered an Activity of less than 50%.

Molecule `Cc1nc2nc(Sc3ccccc3)cnc2cc1NC(=O)Nc1cccc(C(F)(F)F)c1` yielded an Activity of less than 50%.

Another assay deals with MCF7. Nature of the assay: Cytotoxicity against human MCF7 cells at 10 uM by MTT assay. The assay is classed as functional.
In turn, `Cc1nc2nc(Sc3ccccc3)cnc2cc1NC(=O)CN(C)C` returned an Activity of less than 50%.

Consider `Cc1nc2nccnc2cc1NC(=O)c1cccc(C(F)(F)F)c1`, for which the Activity was less than 50%.

The molecule `Cc1nc2nccnc2cc1NC(=O)c1ccccc1` displayed an Activity of less than 50%.

On to `CSc1ccc(NC(=O)Nc2cc3ncc(Sc4ccccc4)nc3nc2C)cc1`, for which the Activity was less than 50%.

The molecule `Cc1nc2nc(Sc3ccccc3)cnc2cc1NC(=O)c1ccccc1C(F)(F)F` gave an Activity of less than 50%.

Molecule `Cc1nc2nc(Sc3ccccc3)cnc2cc1NC(=O)c1cccc(C(F)(F)F)c1` gave an Activity of less than 50%.

Molecule `Cc1nc2nccnc2cc1NC(=O)CN(C)C` yielded an Activity of less than 50%.

For the molecule `Cc1nc2nccnc2cc1NC(=O)c1ccc([N+](=O)[O-])cc1`, the Activity is on record as less than 50%.

`Cc1nc2nc(Sc3ccccc3)cnc2cc1NC(=O)Nc1cccc(C(F)(F)F)c1` displayed an Activity of less than 50%.

The subject of the next assay is T47D. Nature of the assay: Cytotoxicity against human T47D cells at 5 uM by MTT assay. The assay is classed as functional.
In turn, `Cc1nc2nc(Sc3ccccc3)cnc2cc1NC(=O)CN(C)C` came in with an Activity of less than 50%.

Molecule `Cc1nc2nccnc2cc1NC(=O)c1cccc(C(F)(F)F)c1` registered an Activity of less than 50%.

In turn, `Cc1nc2nccnc2cc1NC(=O)c1ccccc1` showed an Activity of less than 50%.

Molecule `CSc1ccc(NC(=O)Nc2cc3ncc(Sc4ccccc4)nc3nc2C)cc1` yielded an Activity of less than 50%.

`Cc1nc2nc(Sc3ccccc3)cnc2cc1NC(=O)c1ccccc1C(F)(F)F` had an Activity of less than 50%.

With `Cc1nc2nc(Sc3ccccc3)cnc2cc1NC(=O)c1cccc(C(F)(F)F)c1`, the Activity is listed as less than 50%.

As for `Cc1nc2nccnc2cc1NC(=O)CN(C)C`, the Activity is listed as less than 50%.

As for `Cc1nc2nccnc2cc1NC(=O)c1ccc([N+](=O)[O-])cc1`, the Activity is recorded as less than 50%.

`Cc1nc2nc(Sc3ccccc3)cnc2cc1NC(=O)Nc1cccc(C(F)(F)F)c1` gave an Activity of less than 50%.

Another assay concerns T47D. Nature of the assay: Cytotoxicity against human T47D cells at 10 uM by MTT assay. In kind it is functional.
In turn, `Cc1nc2nc(Sc3ccccc3)cnc2cc1NC(=O)CN(C)C` gave an Activity of less than 50%.

In turn, `Cc1nc2nccnc2cc1NC(=O)c1cccc(C(F)(F)F)c1` registered an Activity of less than 50%.

Molecule `Cc1nc2nccnc2cc1NC(=O)c1ccccc1` displayed an Activity of less than 50%.

Molecule `CSc1ccc(NC(=O)Nc2cc3ncc(Sc4ccccc4)nc3nc2C)cc1` had an Activity of less than 50%.

For the molecule `Cc1nc2nc(Sc3ccccc3)cnc2cc1NC(=O)c1ccccc1C(F)(F)F`, the Activity is less than 50%.

`Cc1nc2nc(Sc3ccccc3)cnc2cc1NC(=O)c1cccc(C(F)(F)F)c1` had an Activity of less than 50%.

`Cc1nc2nccnc2cc1NC(=O)CN(C)C` returned an Activity of less than 50%.

On to `Cc1nc2nccnc2cc1NC(=O)c1ccc([N+](=O)[O-])cc1`, for which the Activity is recorded as less than 50%.

In turn, `Cc1nc2nc(Sc3ccccc3)cnc2cc1NC(=O)Nc1cccc(C(F)(F)F)c1` gave an Activity of less than 50%.

A further assay has as its system MDA-MB-231. The assay is described as follows: Cytotoxicity against human MDA-MB-231 cells at 5 uM by MTT assay. The assay is classed as functional.
For the molecule `Cc1nc2nc(Sc3ccccc3)cnc2cc1NC(=O)CN(C)C`, the Activity is less than 50%.

`Cc1nc2nccnc2cc1NC(=O)c1cccc(C(F)(F)F)c1` gave an Activity of less than 50%.

Turning to `Cc1nc2nccnc2cc1NC(=O)c1ccccc1`, the Activity is recorded as less than 50%.

In turn, `CSc1ccc(NC(=O)Nc2cc3ncc(Sc4ccccc4)nc3nc2C)cc1` came in with an Activity of less than 50%.

`Cc1nc2nc(Sc3ccccc3)cnc2cc1NC(=O)c1ccccc1C(F)(F)F` yielded an Activity of less than 50%.

The molecule `Cc1nc2nc(Sc3ccccc3)cnc2cc1NC(=O)c1cccc(C(F)(F)F)c1` gave an Activity of less than 50%.

`Cc1nc2nccnc2cc1NC(=O)CN(C)C` yielded an Activity of less than 50%.

As for `Cc1nc2nccnc2cc1NC(=O)c1ccc([N+](=O)[O-])cc1`, the Activity is given as less than 50%.

`Cc1nc2nc(Sc3ccccc3)cnc2cc1NC(=O)Nc1cccc(C(F)(F)F)c1` yielded an Activity of less than 50%.

The test system of the next assay is MDA-MB-231. Nature of the assay: Cytotoxicity against human MDA-MB-231 cells at 10 uM by MTT assay. In kind it is functional.
Consider `Cc1nc2nc(Sc3ccccc3)cnc2cc1NC(=O)CN(C)C`, for which the Activity is reported as less than 50%.

Turning to `Cc1nc2nccnc2cc1NC(=O)c1cccc(C(F)(F)F)c1`, the Activity is reported as less than 50%.

`Cc1nc2nccnc2cc1NC(=O)c1ccccc1` gave an Activity of less than 50%.

In turn, `CSc1ccc(NC(=O)Nc2cc3ncc(Sc4ccccc4)nc3nc2C)cc1` showed an Activity of less than 50%.

As for `Cc1nc2nc(Sc3ccccc3)cnc2cc1NC(=O)c1ccccc1C(F)(F)F`, the Activity is recorded as less than 50%.

The molecule `Cc1nc2nc(Sc3ccccc3)cnc2cc1NC(=O)c1cccc(C(F)(F)F)c1` had an Activity of less than 50%.

On to `Cc1nc2nccnc2cc1NC(=O)CN(C)C`, for which the Activity is less than 50%.

Molecule `Cc1nc2nccnc2cc1NC(=O)c1ccc([N+](=O)[O-])cc1` displayed an Activity of less than 50%.

`Cc1nc2nc(Sc3ccccc3)cnc2cc1NC(=O)Nc1cccc(C(F)(F)F)c1`: the Activity is less than 50%.

In a further assay the test system is HCC1954. Nature of the assay: Cytotoxicity against human HCC1954 cells at 5 uM by MTT assay. In kind it is functional.
`Cc1nc2nc(Sc3ccccc3)cnc2cc1NC(=O)CN(C)C` showed an Activity of less than 50%.

`Cc1nc2nccnc2cc1NC(=O)c1cccc(C(F)(F)F)c1` came in with an Activity of less than 50%.

`Cc1nc2nccnc2cc1NC(=O)c1ccccc1` returned an Activity of less than 50%.

For the molecule `CSc1ccc(NC(=O)Nc2cc3ncc(Sc4ccccc4)nc3nc2C)cc1`, the Activity was less than 50%.

`Cc1nc2nc(Sc3ccccc3)cnc2cc1NC(=O)c1ccccc1C(F)(F)F` came in with an Activity of less than 50%.

Consider `Cc1nc2nc(Sc3ccccc3)cnc2cc1NC(=O)c1cccc(C(F)(F)F)c1`, for which the Activity is recorded as less than 50%.

Molecule `Cc1nc2nccnc2cc1NC(=O)CN(C)C` showed an Activity of less than 50%.

The molecule `Cc1nc2nccnc2cc1NC(=O)c1ccc([N+](=O)[O-])cc1` had an Activity of less than 50%.

`Cc1nc2nc(Sc3ccccc3)cnc2cc1NC(=O)Nc1cccc(C(F)(F)F)c1` returned an Activity of less than 50%.

In another assay the test system is HCC1954. Nature of the assay: Cytotoxicity against human HCC1954 cells at 10 uM by MTT assay. In kind it is functional.
`Cc1nc2nc(Sc3ccccc3)cnc2cc1NC(=O)CN(C)C` had an Activity of less than 50%.

`Cc1nc2nccnc2cc1NC(=O)c1cccc(C(F)(F)F)c1` yielded an Activity of less than 50%.

In turn, `Cc1nc2nccnc2cc1NC(=O)c1ccccc1` gave an Activity of less than 50%.

As to `CSc1ccc(NC(=O)Nc2cc3ncc(Sc4ccccc4)nc3nc2C)cc1`, the Activity is reported as less than 50%.

As to `Cc1nc2nc(Sc3ccccc3)cnc2cc1NC(=O)c1ccccc1C(F)(F)F`, the Activity is less than 50%.

`Cc1nc2nc(Sc3ccccc3)cnc2cc1NC(=O)c1cccc(C(F)(F)F)c1` came in with an Activity of less than 50%.

`Cc1nc2nccnc2cc1NC(=O)CN(C)C`: the Activity is reported as less than 50%.

Turning to `Cc1nc2nccnc2cc1NC(=O)c1ccc([N+](=O)[O-])cc1`, the Activity is listed as less than 50%.

In the case of `Cc1nc2nc(Sc3ccccc3)cnc2cc1NC(=O)Nc1cccc(C(F)(F)F)c1`, the Activity is less than 50%.

For the origin of these results see ChEMBL document CHEMBL4000195, “Design and synthesis of novel 7-aminosubstituted pyrido[2,3-b]pyrazines exhibiting anti-breast cancer activity” (Eur J Med Chem, 2017).
